Patent publication US20250222145A1, “TRACER COMPOSITION FOR RADIOACTIVE PET DIAGNOSIS, INTERMEDIATE THEREOF, AND PRODUCTION METHOD THEREOF” (OSAKA UNIVERSITY, priority 2021, published 2025)

Key:
brain tumor (C6 glioma) [1] = assay: PET imaging of tumor accumulation in C6 glioma model mouse; assay type: in vivo
Protocol: (§1) ^18F-FAMT-OMe synthesized in the Example 1 was administered to a model mouse of brain tumor (C6 glioma), and accumulation properties thereof were observed Specifically, a solution containing about 10 MBq of ^18F-FAMT-OMe was intravenously injected into the mouse, and PET images were acquired at regular intervals.

[2] = changes over time in accumulation in the kidney (SUV, PET); assay type: in vivo, mouse; conditions: FIG. 3, SUV based on the radiation dose of blood
Protocol: as §1
In addition, FIG. 3 (left drawing) illustrates a result of measuring changes over time in the accumulation of the ^18F-FAMT-OMe in the kidney on the basis of a standardized uptake value (SUV) value based on the radiation dose of blood. As a comparative example, a result of a case using the ^18F-FAMT is illustrated in FIG. 3 (right drawing). In addition, FIG. 4 is a graph comparing the maximum value of SUV (SUVmax) with the existing tracer compounds ^18F-FBPA and ^18F-FAMT.

brain tumor (C6 glioma) [3] = assay: distribution (% ID/g) in the mouse body; assay type: in vivo; conditions: FIG. 5; except kidney and pancreas
Text: Further, FIG. 5 is a graph representing a distribution (% ID/g) of the ^18F-FAMT-OMe of the present invention in the mouse body.

[4] = radiochemical purity over time after production; assay type: physicochemical; conditions: after 5 hours of production, FIG. 1
Text: A result of measuring radiochemical purity of the obtained compound 3 is illustrated in FIG. 1.

## COc1ccc(CC(C)(N)C(=O)O)cc1[18F] (stereo not drawn) [Compound 3]
Brain tumor (C6 glioma) [1]; about 10 MBq intravenously, model mouse of brain tumor (C6 glioma), FIG. 2
  accumulation at a tumor site (PET images): clear and high accumulation at a tumor site
Brain tumor (C6 glioma) [1]; in comparison with conventional ^18F-FAMT, FIG. 2
  washing out from tumor site: washing out was significantly gentle
Brain tumor (C6 glioma) [1]; one hour after administration, versus conventional ^18F-FAMT
  accumulation one hour after administration: better than that of the conventional ^18F-FAMT
[2]
  accumulation in the kidney over time (SUV): excreted from the kidney over time
Brain tumor (C6 glioma) [3]
  distribution (% ID/g): tumor versus normal organs and blood: significantly higher accumulation at a tumor site
[4]
  stability of radiochemical purity: purity was maintained even after 5 hours
